According to patent publication EP1143981B1, “USE OF N-GLYCOLNEURAMINIC ACID AND ITS DERIVATIVES FOR THE MANUFACTURE OF A MEDICAMENT FOR THE TREATMENT OF HIV INFECTIONS” (Glukor, Inc., priority 1998, dated 2000):
pIC50: −log10 of the molar value.

Tests used:
HIV-1IIIB = assay: PBMC cell-based anti-HIV assay; conditions: PBMCs
Experimental: (§1) For the standard PBMC assay, PHA-P stimulated cells from at least two normal donors were pooled, diluted in fresh medium to a final concentration of 1 x 10^6 cells/mL, and plated in the interior wells of a 96 well round bottom microplate at 50 µL/well (5 x 10^4 cells/well). Test drug dilutions were prepared at a 2X concentration in microfuge tubes and 100 µL of each concentration was placed in appropriate wells in a standard format. A predetermined dilution of virus stock was placed in each test well (50 µL, final MOI ≅ 0.1). Wells with cells and virus alone were used for virus control. Separate plates were prepared identically without virus for drug cytotoxicity studies using an XTT assay system. The PBMC cultures were maintained for seven days following infection, at which time cell-free supernatant samples were collected and assayed for reverse transcriptase activity as described below.
Reverse Transcriptase Activity Assay: A microtiter based reverse transcriptase (RT) reaction was utilized as described by Buckheit et al., (1991), AIDS Research and Human Retroviruses, 7:295-302. Tritiated thymidine triphosphate (^3H-TTP) was suspended in distilled H2O at 5 Ci/mL. […] Opti-Fluor-O (Packard) was added to each sample and incorporated radioactivity was quantified utilizing a Wallac 1450 MicroBeta Plus liquid scintillation counter. […]

HIV-1ROJO = assay: Reverse transcriptase activity assay in infected PBMCs; assay type: cell-based; conditions: PBMCs
Text: PBMCs were isolated from fresh human blood obtained commercially from the American Red Cross (Baltimore, Maryland). CEM-SS cells were obtained from the NIH AIDS reagent program. The low passage, lymphotropic clinical isolate ROJO was obtained from a pediatric patient attending the AIDS Clinic at the University of Alabama at Birmingham. Phytohemagglutinin (PHA-P) was obtained from Sigma Chemical Co. (St. Louis, MO) and recombinant IL-2 was obtained from Amgen (San Francisco, CA). As a positive control for antiviral assays, AZT was obtained from the NIH AIDS Reagent Program. HIV-1RF also was obtained from the NIH AIDS reagent program. Tritiated thymidine triphosphate was obtained from New England Nuclear (Boston, MA). Each plate in each experiment contained cell control wells (cells only), virus control wells (cells plus virus), drug toxicity control wells (cells plus drug only), drug colorimetric control wells (drug only) as well as experimental wells (drug plus cells plus virus).
Fresh human PBMCs were isolated from voluntary Red Cross donors, seronegative for HIV and HBV. Leukophoresed blood was diluted 1:1 with Dulbecco's PBS, layered over 14 mL of Ficoll-Hypaque density gradient in a 50mL centrifuge and then centrifuged for 30 minutes at 600 x g. Banded PBMCs were gently aspirated from the resulting interface and subsequently washed twice with PBS by low speed centrifugation. […] PBMCs were maintained in this medium at a concentration of 1-2 x 10^6 cells/mL with bi-weekly medium changes until used in the assay.
as §1
Virus Preparation: Pre-tittered aliquots of HIV-1ROJO and HIV-1RF were removed from the freezer (-80°C) and thawed to room temperature in a biological safety cabinet. The virus was resuspended and diluted into tissue culture medium such that the amount of virus added to each well in a volume of 50 µL will be the amount determined to give complete cell killing at 6 days post-infection.
Reverse Transcriptase Activity Assay: A microtiter based reverse transcriptase (RT) reaction was utilized as described by Buckheit et al., (1991), AIDS Research and Human Retroviruses, 7:295-302. Tritiated thymidine triphosphate (^3H-TTP) was suspended in distilled H2O at 5 Ci/mL. Poly rA and oligo dT were prepared as a stock solution which was kept at -20°C. RT reaction buffer was prepared fresh on a daily basis and contained 125 µL 1M EGTA, 125 µL dH2O, 110 µL 10% SDS, 50 µL 1M Tris (pH 7.4), 50 µL 1M DTT, and 40 µL 1M MgCl2. These three solutions were mixed together in a ratio of 2 parts ^3H-TTP, 1 part poly rA:oligo dT, and 1 part reaction buffer. Ten microliters of this reaction mixture were placed in a round bottom microtiter plate and 15 µL of virus containing supernatant were added and mixed. The plate was incubated at 37°C in a water bath with a solid support to prevent submersion of the plate and incubated for 60 minutes.

Cc1cn([C@H]2C[C@H](N=[N+]=[N-])[C@@H](CO)O2)c(=O)[nH]c1=O [AZT, reference compound]
pIC50 (HIV-1IIIB): 8.70 | pIC50 (HIV-1ROJO; 2hr pretreatment): 8.40 | pIC50 (HIV-1ROJO; without pretreatment): 8.10
